This is an account of results in PMC6405326 (ACS chemical neuroscience, 2018).

The test system of series [1] is KOR-DOR and KOR-MOR heterodimers. Conditions: HEK293 cells; cited from earlier work.
The target of series [2] is T1, mouse MOR (Mus musculus, UniProt P42866). Kind of series: Competitive radioligand binding assay, MOR.
Series [3] has as its target T1, mouse MOR. Kind of series: [35S]-GTPγS functional assay, MOR-CHO membranes. The conditions noted are these: for Emax: read-out: MOR [35S]-GTPγS assay % Emax of DAMGO, relative to 3 μM DAMGO; for MOR [35S]-GTPγS assay % Emax of DAMGO: relative to 3 μM DAMGO. (GTPγS is a poorly hydrolysed GTP analogue; its binding reports G protein activation.)
The target in a further series is mouse KOR (Mus musculus, UniProt P33534). Kind of series: Competitive radioligand binding assay, KOR.
For series [4] the following is noted: cited from earlier work.
Series [5] has as its system male Swiss Webster mice. Kind of series: Warm-water tail immersion assay, antinociceptive effect. Conditions: 10 mg/kg s.c., tested 20 min after injection, 56 °C water.
The target of another series is mouse DOR (Mus musculus, UniProt P32300). Kind of series: Competitive radioligand binding assay, DOR.
Series [6] has as its system male Swiss Webster mice. Kind of series: Warm-water tail immersion assay, antagonism of morphine's antinociceptive effect. Conditions: dose-response study, s.c.

For `O=C(N[C@@H]1CC[C@@]2(O)[C@H]3Cc4ccc(O)c5c4[C@@]2(CCN3CC2CC2)[C@H]1O5)c1cc2ccccc2[nH]1` [Compound 1, 17-Cyclopropylmethyl-3,14β-dihydroxy-4,5α-epoxy-6β-(indole-2-carboxamido)morphinan], in series [1], the “Activation of KOR-DOR and KOR-MOR heterodimers” value is “activated”. For the same compound, the Ki at mouse MOR [2] came to 0.29 ± 0.04 nM. For the same compound, on mouse MOR [3], the EC50 was 0.21 ± 0.01 nM, the Emax came out at 92.4 ± 2.81% and the “MOR [35S]-GTPγS assay % Emax of DAMGO” value is “full agonist”. For the same compound, at mouse MOR [3] (mMOR-CHO membranes), the “MOR [35S]-GTPγS assay EC50” value is reported as “subnanomolar potency”. The inhibition constant (Ki) at mouse KOR worked out at 0.18 nM. Besides, in series [4], the Antinociception result is recorded as “potent antinociception”; the “Aversive effects in the conditioned place preference assay” value was “no aversive effects”; the Tolerance and dependence entry was “devoid of tolerance and dependence”. The “Antinociceptive effect (% MPE)” value in the series on male Swiss Webster mice [5] (listed as INTA) is listed as “potent antinociception”. On mouse DOR, this compound came in with a Ki of 1.54 ± 0.47 nM.

Regarding `O=C(N[C@@H]1CC[C@@]2(O)[C@H]3Cc4ccc(O)c5c4[C@@]2(CCN3CC2CC2)[C@H]1O5)c1c[nH]c2ccccc12` [Compound 2, 17-Cyclopropylmethyl-3,14β-dihydroxy-4,5α-epoxy-6β-(indole-3-carboxamido)morphinan], on mouse MOR [2], the Ki is 0.19 ± 0.02 nM. Further, on mouse MOR [3], the EC50 amounted to 0.22 ± 0.07 nM, the Emax stood at 79.5 ± 7.41% and the “MOR [35S]-GTPγS assay % Emax of DAMGO” value is “high MOR efficacies”. In addition, in the series on male Swiss Webster mice [5], the “Antinociceptive effect (% MPE)” value was “low % MPE values”. Further, on mouse DOR, the affinity corresponds to a Ki of 7.17 ± 1.23 nM.

Consider `O=C(N[C@@H]1CC[C@@]2(O)[C@H]3Cc4ccc(O)c5c4[C@@]2(CCN3CC2CC2)[C@H]1O5)c1cccc2[nH]ccc12` [Compound 3, 17-Cyclopropylmethyl-3,14β-dihydroxy-4,5α-epoxy-6β-(indole-4-carboxamido)morphinan], for which the results for the Ki at mouse MOR [2] and at mouse DOR were 0.24 ± 0.03 nM and 49.8 ± 12.7 nM, respectively. This compound also registered an EC50 at mouse MOR [3] of 8.16 ± 4.72 nM.

`O=C(N[C@@H]1CC[C@@]2(O)[C@H]3Cc4ccc(O)c5c4[C@@]2(CCN3CC2CC2)[C@H]1O5)c1ccc2[nH]ccc2c1` [Compound 4, 17-Cyclopropylmethyl-3,14β-dihydroxy-4,5α-epoxy-6β-(indole-5-carboxamido)morphinan]: the Ki at mouse MOR [2] was found to be 0.26 ± 0.04 nM; at mouse KOR, 0.51 ± 0.04 nM; at mouse DOR, 17.7 ± 4.78 nM. On mouse MOR [3], this compound yielded an EC50 of 2.98 ± 1.25 nM. The Emax on mouse MOR [3] worked out at 22.3 ± 3.5%.

Regarding `O=C(N[C@@H]1CC[C@@]2(O)[C@H]3Cc4ccc(O)c5c4[C@@]2(CCN3CC2CC2)[C@H]1O5)c1ccc2cc[nH]c2c1` [Compound 5, 17-Cyclopropylmethyl-3,14β-dihydroxy-4,5α-epoxy-6β-(indole-6-carboxamido)morphinan], the values for the inhibition constant Ki on mouse MOR [2], at mouse KOR and at mouse DOR were 0.25 ± 0.04 nM, 0.17 ± 0.01 nM and 6.23 ± 0.83 nM, respectively. Further, a half-maximal response at mouse MOR [3] (EC50) required 0.19 ± 0.02 nM. Besides, at mouse MOR [3], the Emax came out at 71.8 ± 4.37%. For the same compound, the “MOR [35S]-GTPγS assay % Emax of DAMGO” value on mouse MOR [3] is listed as “high MOR efficacies”. For the same compound, the “Antinociceptive effect (% MPE)” value with male Swiss Webster mice [5] is on record as “low % MPE values”.

`O=C(N[C@@H]1CC[C@@]2(O)[C@H]3Cc4ccc(O)c5c4[C@@]2(CCN3CC2CC2)[C@H]1O5)c1cccc2cc[nH]c12` [Compound 6, 17-Cyclopropylmethyl-3,14β-dihydroxy-4,5α-epoxy-6β-(indole-7-carboxamido)morphinan]: the “MOR [35S]-GTPγS assay % Emax of DAMGO” value on mouse MOR [3] is on record as 37.94 ±5.85%. The inhibition constant Ki at mouse KOR came to 0.52 ± 0.09 nM; on mouse DOR, 30.4 ± 9.49 nM.

The compound `O=C(Cc1c[nH]c2ccccc12)N[C@@H]1CC[C@@]2(O)[C@H]3Cc4ccc(O)c5c4[C@@]2(CCN3CC2CC2)[C@H]1O5` [Compound 7, 17-Cyclopropylmethyl-3,14β-dihydroxy-4,5α-epoxy-6β-[2-(indol-3-yl)acetamido)morphinan] came in with a Ki on mouse MOR [2] of 0.24 ± 0.03 nM. Also, on mouse MOR [3], the EC50 stood at 1.44 ± 0.75 nM and the Emax was determined as 48.3 ± 4.45%. In addition, the inhibition constant (Ki) at mouse DOR came to 37 ± 1.21 nM.

For the compound `O=C(CCc1c[nH]c2ccccc12)N[C@@H]1CC[C@@]2(O)[C@H]3Cc4ccc(O)c5c4[C@@]2(CCN3CC2CC2)[C@H]1O5` [Compound 8, 17-Cyclopropylmethyl-3,14β-dihydroxy-4,5α-epoxy-6β-[3-(indol-3-yl)propanamido)morphinan], the Ki on mouse MOR [2] is 0.17 ± 0.01 nM; at mouse KOR it was 0.39 ± 0.05 nM; on mouse DOR it was 77.1 ± 28.3 nM. This compound showed an EC50 on mouse MOR [3] of 1.73 ± 1.1 nM. The Emax at mouse MOR [3] came to 45.1 ± 5.18%.

For the compound `O=C(CCCc1c[nH]c2ccccc12)N[C@@H]1CC[C@@]2(O)[C@H]3Cc4ccc(O)c5c4[C@@]2(CCN3CC2CC2)[C@H]1O5` [Compound 9, 17-Cyclopropylmethyl-3,14β-dihydroxy-4,5α-epoxy-6β-[4-(indol-3-yl)butanamido)morphinan], the Ki at mouse MOR [2] came to 0.2 ± 0.03 nM. For the same compound, at mouse MOR [3], the EC50 was found to be 1.04 ± 0.17 nM and the “MOR [35S]-GTPγS assay % Emax of DAMGO” value was 36.29 ±4.11%. Also, at mouse DOR, the Ki is 25.3 ± 4.34 nM.

For the compound `O=C(N[C@H]1CC[C@@]2(O)[C@H]3Cc4ccc(O)c5c4[C@@]2(CCN3CC2CC2)[C@H]1O5)c1cc2ccccc2[nH]1` [Compound 10, 17-Cyclopropylmethyl-3,14β-dihydroxy-4,5α-epoxy-6α-(indole-2-carboxamido)morphinan], the Ki on mouse MOR [2] turned out to be 0.36 ± 0.03 nM; at mouse KOR, 0.93 ± 0.13 nM; at mouse DOR it was 14.2 ± 2.78 nM. For the same compound, the midpoint of the response on mouse MOR [3], the EC50, lay at 6.75 ± 3.2 nM. Moreover, at mouse MOR [3], the Emax amounted to 36.9 ± 2.4%.

Turning to `O=C(N[C@H]1CC[C@@]2(O)[C@H]3Cc4ccc(O)c5c4[C@@]2(CCN3CC2CC2)[C@H]1O5)c1c[nH]c2ccccc12` [Compound 11, 17-Cyclopropylmethyl-3,14β-dihydroxy-4,5α-epoxy-6α-(indole-3-carboxamido)morphinan], the Ki is 0.29 ± 0.04 nM at mouse MOR [2], 0.98 ± 0.13 nM on mouse KOR and 10.5 ± 2.89 nM at mouse DOR. This compound returned a 50% effective concentration (EC50) on mouse MOR [3] of 1 ± 0.13 nM. For the same compound, the Emax at mouse MOR [3] was determined as 33.3 ± 3.51%.

On to `O=C(N[C@H]1CC[C@@]2(O)[C@H]3Cc4ccc(O)c5c4[C@@]2(CCN3CC2CC2)[C@H]1O5)c1cccc2[nH]ccc12` [Compound 12, 17-Cyclopropylmethyl-3,14β-dihydroxy-4,5α-epoxy-6α-(indole-4-carboxamido)morphinan], for which affinity at mouse MOR [2] was put at a Ki of 0.26 ± 0.04 nM. Besides, at mouse MOR [3], the EC50 was 4.99 ± 2.19 nM and the “MOR [35S]-GTPγS assay % Emax of DAMGO” value worked out at 28.90 ±0.95%. Moreover, the Ki on mouse DOR worked out at 9.26 ± 2.83 nM.

As for `O=C(N[C@H]1CC[C@@]2(O)[C@H]3Cc4ccc(O)c5c4[C@@]2(CCN3CC2CC2)[C@H]1O5)c1ccc2[nH]ccc2c1` [Compound 13, 17-Cyclopropylmethyl-3,14β-dihydroxy-4,5α-epoxy-6α-(indole-5-carboxamido)morphinan], the Ki on mouse MOR [2] was 0.76 ± 0.11 nM; at mouse KOR, 3.45 ± 0.99 nM; at mouse DOR it was 26.7 ± 7.72 nM. The compound also showed an EC50 on mouse MOR [3] of 1.55 ± 0.08 nM. Besides, the Emax on mouse MOR [3] was 32.2 ± 1.26%.

Take `O=C(N[C@H]1CC[C@@]2(O)[C@H]3Cc4ccc(O)c5c4[C@@]2(CCN3CC2CC2)[C@H]1O5)c1ccc2cc[nH]c2c1` [Compound 14, 17-Cyclopropylmethyl-3,14β-dihydroxy-4,5α-epoxy-6α-(indole-6-carboxamido)morphinan]: the Ki stood at 0.43 ± 0.05 nM on mouse MOR [2], 1.63 ± 0.28 nM at mouse KOR and 12.8 ± 3.36 nM at mouse DOR. Moreover, it took 6.06 ± 1.25 nM to reach a half-maximal effect at mouse MOR [3] (EC50). In addition, the maximal effect (Emax) on mouse MOR [3] worked out at 26.6 ± 0.66%.

In the case of `O=C(N[C@H]1CC[C@@]2(O)[C@H]3Cc4ccc(O)c5c4[C@@]2(CCN3CC2CC2)[C@H]1O5)c1cccc2cc[nH]c12` [Compound 15, 17-Cyclopropylmethyl-3,14β-dihydroxy-4,5α-epoxy-6α-(indole-7-carboxamido)morphinan], the “AD50 (95% CL), opioid antagonist effect against morphine” value in the series with male Swiss Webster mice [6] is given as 2.07 (0.40−10.74) mg/kg.

Turning to `O=C(Cc1c[nH]c2ccccc12)N[C@H]1CC[C@@]2(O)[C@H]3Cc4ccc(O)c5c4[C@@]2(CCN3CC2CC2)[C@H]1O5` [Compound 16, 17-Cyclopropylmethyl-3,14β-dihydroxy-4,5α-epoxy-6α-[2-(indol-3-yl)acetamido)morphinan], the Ki at mouse MOR [2] was 0.84 ± 0.12 nM; on mouse KOR, 3.14 ± 0.45 nM; at mouse DOR, 9.17 ± 2.67 nM. At mouse MOR [3], this compound returned an EC50 of 4.75 ± 0.31 nM. Further, the Emax at mouse MOR [3] was found to be 34.1 ± 0.97%.

On to `O=C(CCc1c[nH]c2ccccc12)N[C@H]1CC[C@@]2(O)[C@H]3Cc4ccc(O)c5c4[C@@]2(CCN3CC2CC2)[C@H]1O5` [Compound 17, 17-Cyclopropylmethyl-3,14β-dihydroxy-4,5α-epoxy-6α-[3-(indol-3-yl)propanamido)morphinan], for which the Ki on mouse MOR [2] was 0.44 ± 0.04 nM; at mouse KOR, 1.36 ± 0.18 nM; at mouse DOR, 25.1 ± 6.83 nM. On mouse MOR [3], this compound displayed an EC50 of 2.09 ± 0.19 nM. For the same compound, the maximal response (Emax) at mouse MOR [3] came to 41.5 ± 6.14%.

For the compound `O=C(CCCc1c[nH]c2ccccc12)N[C@H]1CC[C@@]2(O)[C@H]3Cc4ccc(O)c5c4[C@@]2(CCN3CC2CC2)[C@H]1O5` [Compound 18, 17-Cyclopropylmethyl-3,14β-dihydroxy-4,5α-epoxy-6α-[4-(indol-3-yl)butanamido)morphinan], the Ki amounted to 0.29 ± 0.04 nM at mouse MOR [2], 0.15 ± 0.03 nM on mouse KOR and 6.73 ± 0.4 nM at mouse DOR. The compound further returned an EC50 at mouse MOR [3] of 1.89 ± 1.04 nM. Moreover, the Emax at mouse MOR [3] stood at 54.9 ± 6.35%.

What is called Ki is a dissociation constant, usually derived from enzyme kinetics or from competition with a known ligand. Lower therefore signals tighter binding. As usually defined, the EC50 is the concentration needed to bring the measured effect to its halfway point. As a reminder, the Emax is the greatest response seen or fitted, relative to the assay's reference.
